The test system of assay [1] is Klebsiella pneumoniae NCTC 13368. The experiment in a line: Broth microdilution MIC. The assay is classed as cell-based.
For assay [2], the system named is Klebsiella pneumoniae M6. The experiment in a line: Broth microdilution MIC. The assay is classed as cell-based.
Assay [3] has as its system Pseudomonas aeruginosa NCTC 13437. The experiment in a line: Broth microdilution MIC. The class given is cell-based.
The subject of assay [4] is EMR Staphylococcus aureus 15 NCTC 13616. The experiment in a line: Broth microdilution MIC. The assay is classed as cell-based.
Assay [5] concerns EMR Staphylococcus aureus 16 NCTC 13277. The experiment in a line: Broth microdilution MIC. The class given is cell-based.
For assay [6], the system named is VS Enterococcus faecalis NCTC 775. The experiment in a line: Broth microdilution MIC. The assay is classed as cell-based.
Assay [7] relates to VR Enterococcus faecium NCTC 12204. The experiment in a line: Broth microdilution MIC. The class given is cell-based.
Assay [8] relates to C. auris temp probe. The experiment in a line: Broth microdilution MIC. The assay is classed as cell-based, Candida auris. The following applies: C. auris temp probe.
Assay [9] concerns C. glabrata 8018. The experiment in a line: Broth microdilution MIC. The class given is cell-based. The following applies: C. glabrata 8018.
Assay [10] concerns C. tropicalis 8760. The experiment in a line: Broth microdilution MIC. To be noted: C. tropicalis 8760. The assay is classed as cell-based.
In assay [11] the test system is C. parapsilosis 3209. The experiment in a line: Broth microdilution MIC. The assay is classed as cell-based.
Assay [12] concerns C. parapsilosis. The experiment in a line: Broth microdilution MIC. The class given is cell-based.
The test system of assay [13] is M. smegmatis mc^2 155. The experiment in a line: Broth microdilution MIC (Middlebrook 7H9). The class given is cell-based, Mycobacterium smegmatis.
The subject of assay [14] is M. tuberculosis Bleupan. The experiment in a line: microbe, parasite or virus in culture. The class given is cell-based, Mycobacterium tuberculosis.
For assay [15], the system named is HEK293. The experiment in a line: In vitro toxicity for cell line. The assay is classed as cell-based, human. To be noted: for EC50: Homo sapiens. An excerpt:
(§1) TABLE 2 Toxicity of bolaamphiphiles for two cell lines^a | column: Toxicity (EC50 [μg/ml]) of: / 12-bis-THA Cl2; Toxicity (EC50 [μg/ml]) of: / Dequalinium; Toxicity (EC50 [μg/ml]) of: / Quino-bola; Toxicity (EC50 [μg/ml]) of: / Penta-bola; Toxicity (EC50 [μg/ml]) of: / Hepta-bola; Toxicity (EC50 [μg/ml]) of: / Octa-bola; Toxicity (EC50 [μg/ml]) of: / Octa-C10; Toxicity (EC50 [μg/ml]) of: / Octa-C8; Toxicity (EC50 [μg/ml]) of: / Octa-C6

Assay [16] relates to HeLa. The experiment in a line: In vitro toxicity for cell line. The class given is cell-based, human. The following applies: for EC50: Homo sapiens, read-out: Toxicity (EC50).
Description: as §1

The subject of assay [17] is P. aeruginosa PAO1. The experiment in a line: Checkerboard synergy assay. The assay is classed as cell-based, Pseudomonas aeruginosa. To be noted: for MIC: Pseudomonas aeruginosa, read-out: MIC Alone Bolalipid.
Assay [18] relates to Escherichia coli ATCC 25922. The experiment in a line: Intrahemocoelic G. mellonella infection model. The assay is classed as in vivo, Galleria mellonella. The following applies: single 10-mg/kg dose 1 h after infection. The method, then: The antimicrobial activities of DQC, CM2, and its analogues Quino-bola, Penta-bola, Hepta-bola, and Octa-bola against Escherichia coli ATCC 25922 were tested in Galleria mellonella larvae. All assays were performed on two separate occasions using a group size of 10 larvae; the larvae were kept in separate petri dishes and in a static incubator at 37°C during the period of the experiment. A suspension of E. coli ATCC 25922 was prepared by transferring two colonies of E. coli ATCC 25922 from a fresh agar plate into PBS and adjusting the absorbance to a McFarland 0.5 standard. The number of CFU per milliliter of this suspension was determined and corresponded to 1 × 10^8 CFU/mL. Larvae were injected beneath the tegument with 10 μL of a 1 × 10^7-CFU/mL bacteria suspension, corresponding to 1 × 10^5 CFU per larva. A 50-μL Hamilton syringe with a G27 needle was used for the injection. […] Ten microliters of stock solution was injected into each larva 1 h after infection (10 mg/kg). Levofloxacin (LVX; 50 μg/mL = 2 mg/kg) and PBS were used as positive and negative controls, respectively. A noninfected PBS injection was included to control for the effects of injection. Survival was monitored over a period of 70 to 72 h. Changes in G. mellonella survival were analyzed by the log rank (Mantel-Cox) method and plotted as Kaplan-Meier survival curves using GraphPad Prism version 7.

Assay [19] deals with Gram-negative bacteria (avg). The experiment in a line: Selectivity index (toxicity/potency). The class given is cell-based. The following applies: ratio of average toxicity (HEK293 and HeLa) to average potency. An excerpt:
(§2) TABLE 3 Selectivity indices of bolaamphiphiles | column: Selectivity of^a: / 12-bis-THA Cl2; Selectivity of^a: / Dequalinium; Selectivity of^a: / Quino-bola; Selectivity of^a: / Penta-bola; Selectivity of^a: / Hepta-bola; Selectivity of^a: / Octa-bola; Selectivity of^a: / Octa-C10; Selectivity of^a: / Octa-C8; Selectivity of^a: / Octa-C6

Assay [20] relates to Fungi (avg). The experiment in a line: Selectivity index (toxicity/potency). The assay is classed as cell-based, Candida spp. The following applies: ratio of average toxicity (HEK293 and HeLa) to average potency.
Description: as §2

Where [21] appears, read: EMR Staphylococcus aureus 15 NCTC 13616.
Where [22] appears, read: EMR Staphylococcus aureus 16 NCTC 13277.
Where [23] appears, read: VR Enterococcus faecium NCTC 12204.
Setting [24] is: HEK293, average ± standard error from 3 independent repeats.
Setting [25] is: average ± standard error from 3 independent repeats.
[26] abbreviates: NCTC13616, EMR Staphylococcus aureus 15 NCTC 13616, read-out: MIC.
Setting [27] is: NCTC13277, EMR Staphylococcus aureus 16 NCTC 13277, read-out: MIC.
Setting [28] is: NCTC12204, VR Enterococcus faecium NCTC 12204, read-out: MIC.
The mark [29] stands for this setting: Candidozyma auris, read-out: MIC.
Where [30] appears, read: Nakaseomyces glabratus, read-out: MIC.
Setting [31] is: Candida tropicalis, read-out: MIC.
[32] abbreviates: Lodderomyces parapsilosis, read-out: MIC.
Setting [33] is: Mycolicibacterium smegmatis, MC^2155, read-out: MIC.
[34] abbreviates: Mycobacterium tuberculosis, read-out: MIC.
[35] abbreviates: HEK293, average ± standard error from 3 independent repeats, read-out: Toxicity (EC50).

Where two headings read alike, the source gives them in different places. Where only a bound is given, the exact number is not on record here.

Take `Nc1c2c([n+](CCCCCCCCCCCC[n+]3c4c(c(N)c5ccccc53)CCCC4)c3ccccc13)CCCC2` [12-bis-THA Cl2, 12,12′-(Dodecane-1,12-diyl)-bis-(9-amino-1,2,3,4-tetrahydroacridinium) chloride]: the MIC in assay [1] stood at 32 µg/mL; in assay [2], 16 µg/mL; in [3], 32 µg/mL; in [4] (setting [21]) it was 0.25 µg/mL; in assay [5] (setting [22]), 0.125 µg/mL; in [6], 2 µg/mL. Further, the MIC was 0.5 µg/mL in assay [7] (setting [23]); 2 µg/mL in assay [8]; 0.25 µg/mL in [9]; 0.25 µg/mL in assay [10]; 1 µg/mL in assay [11]; 2 µg/mL in [12]. Also, the MIC in assay [13] turned out to be 0.28 µg/mL; in [14], 0.87 µg/mL. Moreover, the “Toxicity (EC50)” value was found to be 5.5 ± 2.0 µg/mL in assay [15] (setting [24]) and 7.1 ± 2.0 µg/mL in assay [16] (setting [25]). In addition, the “MIC alone Bolalipid” value in assay [17] stood at 32 µg/mL. Also, in assay [18], the “protection (survival over 72 h)” value is given as “survival was somewhat better than that obtained in the absence of treatment”.

As for `Cc1cc(N)c2ccccc2[n+]1CCCCCCCCCC[n+]1c(C)cc(N)c2ccccc21` [Dequalinium, dequalinium chloride, reference compound], the MIC in assay [1] (NCTC13368, read-out: MIC) is above 32 µg/mL; in assay [2] (read-out: MIC), above 32 µg/mL; in assay [3] (NCTC13437, read-out: MIC) it was above 32 µg/mL; in assay [4] (setting [26]), 8 µg/mL; in assay [5] (setting [27]) it was 4 µg/mL; in assay [6] (NCTC775, read-out: MIC) it was 32 µg/mL. In addition, the MIC in assay [7] (setting [28]) was found to be 8 µg/mL; in assay [8] (setting [29]), 4 µg/mL; in assay [9] (setting [30]), 0.5 µg/mL; in assay [10] (setting [31]) it was 0.5 µg/mL; in [11] (setting [32]), 4 µg/mL; in assay [12] (setting [32]), 8 µg/mL. In addition, the MIC in assay [13] (setting [33]) was 0.68 µg/mL; in [14] (setting [34]), 3.51 µg/mL; in assay [17] it was above 32 µg/mL. The EC50 in [15] (setting [35]) was found to be 9.9 ± 3.3 µg/mL; in [16] (setting [25]), 34.7 ± 13.9 µg/mL. The Selectivity index in assay [19] amounted to 0.69; in assay [20], 26.8. Moreover, the “protection (survival over 72 h)” value in assay [18] is “protective”.

With `Nc1c2c([n+](CCCCCCCCCCCC[n+]3c4c(c(N)c5ccccc53)CCC4)c3ccccc13)CCC2` [Penta-bola], the MIC is 32 µg/mL in assay [1]; 32 µg/mL in assay [2]; above 32 µg/mL in assay [3]; 0.5 µg/mL in assay [4] (setting [21]); 0.5 µg/mL in assay [5] (setting [22]); 4 µg/mL in [6]. Also, the MIC in [7] (setting [23]) is 1 µg/mL; in assay [8], 2 µg/mL; in assay [9] it was 0.25 µg/mL; in assay [10], 0.25 µg/mL; in assay [11] it was 1 µg/mL; in assay [12], 1 µg/mL. Further, the MIC was 0.10 µg/mL in assay [13] and 0.19 µg/mL in [14]. Also, the entries for the “Toxicity (EC50)” value in [15] (setting [24]) and in assay [16] (setting [25]) were 7.9 ± 1.2 µg/mL and 9.5 ± 1.7 µg/mL, respectively. Further, the “MIC alone Bolalipid” value in assay [17] came to 32 µg/mL. Besides, in assay [18], the “protection (survival over 72 h)” value is on record as “neither Quino-bola nor Penta-bola offered significant protection”.

With `Nc1c2c([n+](CCCCCCCCCCCC[n+]3c4c(c(N)c5ccccc53)CCCCCC4)c3ccccc13)CCCCCC2` [Octa-bola], the MIC in assay [1] (NCTC13368, read-out: MIC) was determined as 32 µg/mL; in [2] (read-out: MIC) it was 16 µg/mL; in assay [3] (NCTC13437, read-out: MIC), 32 µg/mL; in assay [4] (setting [26]) it was 0.125 µg/mL; in assay [5] (setting [27]) it was 0.125 µg/mL; in assay [6] (NCTC775, read-out: MIC), 0.5 µg/mL. In addition, the MIC in [7] (setting [28]) is 0.5 µg/mL; in [8] (setting [29]), 1 µg/mL; in assay [9] (setting [30]) it was 0.5 µg/mL; in [10] (setting [31]), 0.25 µg/mL; in [11] (setting [32]) it was 0.5 µg/mL; in assay [12] (setting [32]) it was 1 µg/mL. Also, the MIC was found to be 0.55 µg/mL in [13] (setting [33]), 0.24 µg/mL in assay [14] (setting [34]) and 32 µg/mL in [17]. Besides, the EC50 in assay [15] (HEK293, read-out: Toxicity (EC50)) was 3.8 ± 0.3 µg/mL; in [16], 4.5 ± 0.7 µg/mL. Moreover, the Selectivity index in assay [19] was determined as 0.53; in assay [20], 8.30. Moreover, the “protection (survival over 72 h)” value in assay [18] was “significantly protective”.

For the molecule `Cc1c(N)c2ccccc2[n+](CCCCCCCCCCCC[n+]2c(C)c(C)c(N)c3ccccc32)c1C` [Quino-bola], the MIC in [1] was 32 µg/mL; in [2] (read-out: MIC), 32 µg/mL; in [3], above 32 µg/mL; in assay [4] (Staphylococcus aureus, NCTC13616) it was 1 µg/mL; in assay [5] (Staphylococcus aureus, NCTC13277), 1 µg/mL; in [6] (NCTC775, read-out: MIC), 4 µg/mL. The MIC in assay [7] (Enterococcus faecium, NCTC12204) was 2 µg/mL; in assay [8] (setting [29]), 2 µg/mL; in assay [9] (setting [30]), 0.25 µg/mL; in assay [10] (setting [31]), 0.25 µg/mL; in assay [11] (setting [32]), 0.5 to 2 µg/mL; in assay [12] (setting [32]) it was 2 µg/mL. For the same molecule, the MIC in [13] (setting [33]) is 0.49 µg/mL; in assay [17] it was above 32 µg/mL. Moreover, the EC50 in assay [15] (setting [35]) was 13.6 ± 0.6 µg/mL; in [16] (setting [25]), 13.9 ± 9.5 µg/mL. Moreover, the results for the Selectivity index in [19] and in assay [20] were 0.55 and 31.8, respectively. Moreover, the “protection (survival over 72 h)” value in [18] is “neither Quino-bola nor Penta-bola offered significant protection”.

(Values after publication PMC9942557, “Bolaamphiphile Analogues of 12-bis-THA Cl2 Are Potent Antimicrobial Therapeutics with Distinct Mechanisms of Action against Bacterial, Mycobacterial, and Fungal Pathogens” (mSphere, 2022).)
